Source: patent US20240409548A1, “MODULATORS OF THE BETA-3 ADRENERGIC RECEPTOR USEFUL FOR THE TREATMENT OR PREVENTION OF DISORDERS RELATED THERETO” (Arena Pharmaceuticals, Inc., priority 2021, published 2024)
Converted amounts (≈) assume the structure as drawn. Like-named read-outs stand apart in the source and are kept apart here.

Key:
[1] = for Solubility (mM) / Solubility (mg/mL): 21° C.±1° C.
Protocol: (§1) Compound C was slurried in various solvents (Table 1) for 2 weeks at ambient temperature (21° C.±1° C.). […] Solubility was determined after 1 day of equilibration and slurries were allowed to stir for 2 weeks. The temperature was monitored and determined to be 21° C.±1° C. for the duration of the study. At the end of 2 weeks, the slurries were removed from stirring and solids were isolated by centrifuge filtration using 0.45-μm nylon filters, allowed to air-dry overnight, and then analyzed by PXRD. Selected samples were also analyzed by TGA and DSC.
Solubility was determined by gravimetric analysis after ˜24 hours of equilibration at ambient temperature (21° C.±1° C.). Samples were separated by centrifuge filtration using an Eppendorf 5417C model centrifuge. Suspension samples were placed into centrifuge filter tubes with 0.45-μm nylon membrane filter and spun at 10000 rpm for 1 minute. Filtrate aliquots of 10 to 20 μL were placed into separate thermogravimetric analyzer pans, previously tared on a TA Instruments Q5000. The filtrates were dried to achieve dry residual solid weights. Solubility was calculated by dividing the dry residual weight by the aliquot volume.

[2] = Dynamic moisture sorption (DMS); assay type: physicochemical
Protocol: Dynamic Moisture Sorption analysis was performed using a TA Instruments Q5000 SA (EQ2418). The sample was prepared for DMS analysis by placing ˜5 mg of compound into a tared sample holder.

[3] = slurry, ambient temperature
Protocol: as §1
X-ray diffraction analysis was performed using a PANalytical. X′Pert PRO MPD powder X-ray diffractometer (EQ0233). Samples were prepared by placing several milligrams of compound onto a sample holder and smoothing flat.

[4] = Aqueous solubility at various pH values (pH-solubility fit); settings: for aqueous solubility: A=active free base
Protocol: Solubility of Compound A in aqueous media was measured at various pH values. The conjugate acid ionization constant and intrinsic solubility of the free base were derived by fitting the measured pH-solubility data to the slope-intercept form of the Henderson-Hasselbalch equation for monobasic molecules.

[5] = dimethyl sulfoxide (remained a solution), ~24 hours
[6] = methyl t-butyl ether, ~24 hours equilibration
[7] = water/acetone (1:20), ~24 hours
[8] = water/acetonitrile (1:20), ~24 hours
[9] = water/isopropyl alcohol (1:20), ~24 hours

CCn1cc(S(=O)(=O)N2CCC3(CC2)C[C@@H](NC[C@H](O)COc2cccc(S(C)(=O)=O)c2)CO3)c(=O)c2ccccc21.CCn1cc(S(=O)(=O)N2CCC3(CC2)C[C@@H](NC[C@H](O)COc2cccc(S(C)(=O)=O)c2)CO3)c(=O)c2ccccc21.CS(=O)(=O)O.CS(=O)(=O)O.O [Compound A, 1-ethyl-3-((R)-3-((S)-2-hydroxy-3-(3-(methylsulfonyl)phenoxy)propylamino)-1-oxa-8-azaspiro[4.5]decan-8-ylsulfonyl)quinolin-4(1H)-one mesylate hemihydrate Form 2]
Solubility (mM) ([1]; Acetone, ~24 hours): 0.61 mM
Solubility (mg/mL) ([1]; Acetone, ~24 hours): 0.44 mg/mL
Solubility (mM) ([1]; Acetonitrile, ~24 hours): 2.31 mM
Solubility (mg/mL) ([1]; Acetonitrile, ~24 hours): 1.66 mg/mL
Solubility (mM) ([1]; Tetrahydrofuran, ~24 hours): 0.39 mM
Solubility (mg/mL) ([1]; Tetrahydrofuran, ~24 hours): 0.28 mg/mL
Solubility (mM) ([1]; Water, ~24 hours): 52.6 mM
Solubility (mg/mL) ([1]; Water, ~24 hours): 30.5 mg/mL
Solubility (mM) [1, 5]: >610 mM
Solubility (mg/mL) [1, 5]: >437 mg/mL
Solubility (mM) ([1]; ethyl acetate, ~24 hours): 0.88 mM
Solubility (mg/mL) ([1]; ethyl acetate, ~24 hours): 0.63 mg/mL
Solubility (mM) ([1]; ethyl alcohol, ~24 hours): 1.03 mM
Solubility (mg/mL) ([1]; ethyl alcohol, ~24 hours): 0.73 mg/mL
solubility ([1]; in methanol, dimethyl sulfoxide, and aqueous systems (high solubility)): > 20000 µM
solubility ([1]; in most organic solvents (low solubility)): ≤ 1000 µM
Solubility (mM) ([1]; isopropyl alcohol, ~24 hours): 1.01 mM
Solubility (mg/mL) ([1]; isopropyl alcohol, ~24 hours): 0.72 mg/mL
Solubility (mM) ([1]; methyl alcohol, ~24 hours): 21.6 mM
Solubility (mg/mL) ([1]; methyl alcohol, ~24 hours): 15.5 mg/mL
Solubility (mM) ([1]; methyl ethyl ketone, ~24 hours): 0.99 mM
Solubility (mg/mL) ([1]; methyl ethyl ketone, ~24 hours): 0.71 mg/mL
Solubility (mM) [1, 6]: 0.76 mM
Solubility (mg/mL) [1, 6]: 0.54 mg/mL
Solubility (mM) [1, 7]: 47.3 mM
Solubility (mg/mL) [1, 7]: 33.9 mg/mL
Solubility (mM) [1, 8]: 97.0 mM
Solubility (mg/mL) [1, 8]: 69.5 mg/mL
Solubility (mM) [1, 9]: 29.4 mM
Solubility (mg/mL) [1, 9]: 21.2 mg/mL
hygroscopicity ([2]; DMS scan 0 to 90% RH, 25° C.): non-hygroscopic
weight change between 30% RH and 90% RH (DMS) ([2]; at 2500, after essentially fully rehydrating): ~0.1%
total weight change of water during the drying step (DMS) ([2]; condition 4000 and ~1% RH until steady weight in ~1 hour): about 0.35%
crystal form stability / conversion ([3]; listed as Form 2): does not convert to any other form at ambient temperature
aqueous solubility [4]: about 28 mgA/mL
aqueous solubility ([4]; listed as mesylate salt): 28 mgA/mL
pHmax ([4]; associated with the mesylate salt): 5.7

CCn1cc(S(=O)(=O)N2CCC3(CC2)C[C@@H](NC[C@H](O)COc2cccc(S(C)(=O)=O)c2)CO3)c(=O)c2ccccc21.CCn1cc(S(=O)(=O)N2CCC3(CC2)C[C@@H](NC[C@H](O)COc2cccc(S(C)(=O)=O)c2)CO3)c(=O)c2ccccc21.CS(=O)(=O)O.CS(=O)(=O)O.O [Compound B, 1-ethyl-3-((R)-3-((S)-2-hydroxy-3-(3-(methylsulfonyl)phenoxy)propylamino)-1-oxa-8-azaspiro[4.5]decan-8-ylsulfonyl)quinolin-4(1H)-one mesylate hemihydrate Form 1]
crystal form stability / conversion ([3]; listed as Form 1): converts to Form 2 in water

CCn1cc(S(=O)(=O)N2CCC3(CC2)C[C@@H](NC[C@H](O)COc2cccc(S(C)(=O)=O)c2)CO3)c(=O)c2ccccc21 [Compound D, 1-ethyl-3-((R)-3-((S)-2-hydroxy-3-(3-(methylsulfonyl)phenoxy)propylamino)-1-oxa-8-azaspiro[4.5]decan-8-ylsulfonyl)quinolin-4(1H)-one]
pKa [4]: 7.44
solubility ([4]; aqueous buffer): 530 µg/mL (≈ 855 µM)
